How the values were obtained:
[1] = Biodistribution bioassay of I-123-labeled compounds in rats, 5 minutes after tail vein injection (blood, brain, heart, stomach activity); format: in vivo, Female Sprague-Dawley rats; conditions: rat; for Percent Dose/g. at 5 min. Blood / Percent Dose/g. at 5 min. Brain / Percent Dose/g. at 5 min. Heart: 0.05 to 1.0 mCi, I-123-labeled
Description: Bioassays were performed utilizing compounds from the foregoing examples labeled with I-123 in accordance with the method described in Example 11. Female Sprague-Dawley rats weighing approximately 150 g. were anesthetized with sodium pentobarbital and were injected in a tail vein with from 0.05 to 1.0 mCi (in a volume of 0.2 to 0.5 ml) of the I-123-labeled compound. Two specimens were utilized for each test.
The animals were sacrificed at 5 minutes post injection, the tails discarded and the amount of activity in various organs determined. Each organ was counted at a standardized geometry with a thallium iodide-activated sodium iodide crystal scintillation counter adjusted for the 159 keV emission of I-123. The organs were also weighed to one thousandth of a gram and the activity calculated as a percent of administered dose per gram organ weight.
The ratio of brain-to-blood activity was calculated as a percent of administered dose per gram. The important determinations are the amount of activity in the brain and the brain/blood ratio. The amount of activity in the stomach is related to loss of the I-123-label. For comparative purposes, I-123 antipyrine was utilized as a standard.

[2] = prior art brain imaging agent; cited from earlier work
[3] = i.v. tail vein, ratio of percent dose per gram
[4] = i.v. tail vein, stomach, related to loss of the I-123-label

Compound | Percent Dose/g. at 5 min. Blood ([1]; i.v. tail vein) | Percent Dose/g. at 5 min. Brain ([1]; i.v. tail vein) | Percent Dose/g. at 5 min. Heart ([1]; i.v. tail vein) | Ratio Brain/Blood [1, 3] | Ratio Heart/Blood [1, 3] | Percent Dose in Stomach [1, 4] | Percent Dose in Stomach ([1]; in vivo, iv) | loss of the iodine label in the brain [2] | Ratio Brain/Blood ([1]; in vivo, iv) | Ratio Heart/Blood ([1]; in vivo, iv)
glyceryl o-iodobenzoate [Example 5] | 1.67 Percent Dose/g. | 0.73 Percent Dose/g. | 1.12 Percent Dose/g. | 0.43 | 0.67 | 0.79 Percent Dose | – | – | – | –
Cc1c([123I])c(=O)n(-c2ccccc2)n1C [^I 123-iodoantipyrine, 4-iodoantipyrine, reference compound] | – | – | – | – | – | – | 2.23 Percent Dose | significant loss of the iodine label in the brain | – | –
O=C(Oc1ccccc1)c1ccccc1[123I] [Example 6, phenyl o-iodobenzoate] | – | – | – | – | – | – | 0.92 Percent Dose | – | 0.20 | 0.60
O=C(OCc1ccccc1)c1ccccc1[123I] [Example 7, benzyl o-iodobenzoate] | – | – | – | – | – | – | 1.46 Percent Dose | – | 0.25 | 0.65
CCCCCCCCCCCCCCCCCCOC(=O)c1ccccc1[123I] [Example 10, octadecyl o-iodobenzoate] | – | – | – | – | – | – | 0.92 Percent Dose | – | 0.12 | 0.53
O=C(Oc1cccc(O)c1O)c1ccccc1[123I] [Example 8, pyrogallyl o-iodobenzoate] | – | – | – | – | – | – | 0.77 Percent Dose | – | 0.08 | 0.51
CCOC(=O)c1ccccc1[123I] [Example 2, ethyl o-iodobenzoate] | – | – | – | – | – | – | 0.81 Percent Dose | – | 0.14 | 0.59
pyridoxyl o-iodobenzoate [Example 9] | 1.61 Percent Dose/g. | 0.31 Percent Dose/g. | 1.02 Percent Dose/g. | 0.19 | 0.63 | 0.93 Percent Dose | – | – | – | –

Reference: patent US4284619A, “Esters useful as brain imaging agents” (Medi-Physics, Inc., priority 1978, dated 1981)
